Tests used:
[1] = test system: HLA-A*02:01 transgenic mouse; experiment: Test 11: in vivo adjuvant activity, cocktail vaccine f (emulsified composition 1), IFNγ ELISPOT; settings: added to cocktail vaccine f (emulsified composition 1); 0.04 nmol or 0.4 nmol per body, twice; FIG. 10 and 11
Description: Evaluation of In Vivo Adjuvant Activity in HLA-A*02:01 Transgenic Mouse
The in vivo adjuvant activity of the compound of Example 1 was evaluated in the following procedure. To a cocktail vaccine (emulsified composition 1) comprising Compound of formula 4 prepared in Reference example 8 and Peptide SEQ ID No. 3 prepared in Reference example 3 (hereinafter, referred to as “cocktail vaccine f”) was added the compound prepared in Example 1 to prepare a vaccine. The vaccine was administered to a HLA-A*02:01 transgenic mouse, and the adjuvant activity of the vaccine was evaluated by the method of testing antigen-specific CTL induction.
For example, the above emulsified composition 1 was prepared as follows. 95.8% (w/w) of soybean oil, 3% (w/w) of PEG-30 dipolyhydroxy stearate, and 1.2% (w/w) of polysorbate 80 were mixed to prepare an oil-phase mixture. The amount of the preparation was adjusted as appropriate. Compound of formula 4 and Peptide SEQ ID No. 3 were mixed with pH 2.5 buffer (10 mM tartaric acid, 10% trehalose) to adjust each concentration to 3 mg/mL and 2.25 mg/mL, respectively. The prepared peptide dilution was mixed with an equal volume of the oil-phase mixture to give an emulsified product, cocktail vaccine f. […] Then, after removal of the supernatant from the wells, stained spots on the ELISPOT plate were counted.

[2] = test system: HLA-A*02:01 transgenic mouse; experiment: Test 4: in vivo adjuvant activity, cocktail vaccine a, IFNγ ELISPOT
Description: Evaluation of in vivo adjuvant activity in HLA-A*02:01 transgenic mouse
The in vivo adjuvant activity of the compound of Example 1 and the compound of Reference example 12 was evaluated in the following procedure. To a cocktail vaccine comprising Compound of formula 4 prepared in Reference example 8 and Peptide SEQ ID No. 3 prepared in Reference example 3 with a preliminarily-emulsified composition (hereinafter, referred to as “cocktail vaccine a”) was added the compound prepared in Example 1 or the compound prepared in Reference example 12 respectively to prepare each vaccine. The vaccine was administered to a HLA-A*02:01 transgenic mouse, and the adjuvant activity of each vaccine was evaluated by the method of testing antigen-specific CTL induction.
The RMFPNAPYL (SEQ ID No. 1) in Compound of formula 4 and the VLDFAPPGA (SEQ ID No. 4) in Peptide SEQ ID No. 3 correspond to antigen peptides derived from an HLA-A*02:01-restricted WT1 protein.
HLA-A*02:01 transgenic mouse (C57BL/6CrHLA-A2.1DR1) lacks mouse MHC, and instead expresses a chimeric HLA of a human MHC (HLA-A*02:01) and a mouse MHC (H-2D^b), and HLA-DRB1*01:01. […]
The character for inducing CTLs specific to the antigen peptide (SEQ ID No. 1 or SEQ ID No. 4) by cocktail vaccine a was evaluated by measuring whether IFNγ can be produced upon stimulation of splenocytes from the mouse with the corresponding peptide. […]

Compound: CCCCCNc1nc(N)nc(C)c1Cc1ccc(CN(C)CCOCCOCCOCCOCCO)cc1OC [Example 1, 1-(4-{[2-amino-4-methyl-6-(pentylamino)pyrimidin-5-yl]methyl}-3-methoxyphenyl)-2-methyl-5,8,11,14-tetraoxa-2-azahexadecan-16-ol·trifluoroacetate]
- CTL counts responsive to Peptide SEQ ID No. 1 or SEQ ID No. 4 compared with adding no compound [1]: more
- CTL counts responsive to Peptide of SEQ ID No. 1 or SEQ ID No. 4 compared with Reference example 12 ([2]; added to cocktail vaccine a, 32.5 ng Example 1 vs 22.5 ng Reference example 12 per body): more
- induced CTL count on adding the compound to the vaccine ([2]; cocktail vaccine a, 32.5 ng Example 1 per body): increases
